Experimental data taken from patent US10357474B2, “Preparation and use of a composition for prevention and mitigation of the effects of radiation” (BioVentures, LLC, priority 2013, dated 2019).

Legend:
[1] = tested on: H9c2 heart cardiomyocytes; assay: Morphology assay of cardiomyocytes exposed to H2O2; type: cell-based, rat
Protocol: FIG. 3 is a set of photographs showing the cardiomyocytes after the indicated treatments. H9C2 heart cardiomyocytes were treated with 5 μM DT3 or 5 μM DG-3 or vehicle control (DMSO) overnight. Cells were then exposed to H2O2 for 4 h. Morphological changes were recorded under an inverted microscope.
(§1) DG-3, provided herein, is a standardized extract derived from annatto seeds that contains only […] and GT3. Because radiation-induced mitochondrial damage and oxidative stress impacts several critical biologic parameters such as DNA damage repair and stem cell fate, in this research we have compared the effects of DT3, GT3, and DG-3 against radiation induced mitochondrial dysfunction and oxidative stress. […] Furthermore, the same treatment preserved the cell viability and mitochondrial respiration in these cells when followed by oxidative insult via H2O2 treatment. Methods of making DG-3 and methods of using these compositions are provided herein.
H9c2 heart cardiomyocytes were treated with 5 μM DT3 or 5 μM DG-3 or vehicle control (DMSO) overnight. Cells were then exposed to 100 or 200 μM H2O2 for 4 h. Morphological changes were recorded under an inverted microscope.

[2] = tested on: Wistar rat liver microsomes; assay: Inhibition of TBHP induced lipid peroxidation in rat liver microsomes; type: biochemical; conditions: rat liver microsomes 1 mg/ml, 1 h pre-incubation at 37° C., 200 μM TBHP for 30 min; read-out: IC50 inhibition of lipid peroxidation (antioxidant potential)
Protocol: Data are means±SEM of triplicate experiments. One of the most well-known properties of the vitamin E components is their ability to prevent lipid peroxidation. See Traber et al. (2011) Free Radic Biol Med 51(5):1000-1013. Briefly, the antioxidant activity of DG-3 was evaluated in rat liver microsomes by measuring inhibition of lipid peroxidation after TBHP ([…]) treatment. Wistar rat liver microsomes (BD Biosciences) were diluted in phosphate buffer, 0.1 M (pH 7.4), at the final protein concentration of 1 mg/ml. The microsomes were treated with different concentrations of DG-3 or DT3 (diluted with DMSO) and incubated at 37° C. for 1 hour before inducing lipid peroxidation with 200 μM TBHP (DMSO) for 30 min.

[3] = tested on: H9c2 heart cardiomyocytes; assay: Cellular bioenergetics measurements (oxygen consumption rate, XF96 Seahorse); type: cell-based, rat; conditions: for Effect of H2O2 treatment on OCR after pre-treatment: 5 μM overnight pre-treatment
Protocol: H9C2 heart cardiomyocytes were treated with 5 μM DT3 or 5 μM DG-3 or vehicle control (DMSO) overnight. Oxygen Consumption Rates (OCR) were measured and cellular bioenergetics profiles were determined using XF96 Seahorse Extracellular Flux Analyzer.
FIG. 6 is a graph showing the effects of hydrogen peroxide on the OCR of cardiomyocytes after the indicated treatments. H9C2 heart cardiomyocytes were exposed to 50 or 100 μM H2O2 for 4 h. Oxygen Consumption Rates (OCR) were measured and cellular bioenergetics profiles were determined using XF96 Seahorse Extracellular Flux Analyzer.
FIG. 7 is a graph showing the effects of 50 μM hydrogen peroxide on the OCR of cardiomyocytes after the indicated pre-treatment with DMSO (dimethylsulfoxide vehicle), DT3 or DG-3. Cellular bioenergetic profiles were determined using XF96 Seahorse Extracellular Flux Analyzer.
FIG. 8 is a graph showing the effects of 100 μM hydrogen peroxide on the OCR of cardiomyocytes after the indicated pre-treatment with DMSO (dimethylsulfoxide vehicle), DT3 or DG-3. Cellular bioenergetic profiles were determined using XF96 Seahorse Extracellular Flux Analyzer.
FIG. 9 is a graph showing the effects of 6 Gy ionizing radiation on the OCR of cardiomyocytes after the indicated pre-treatment with DMSO (dimethylsulfoxide vehicle). DT3 or DG-3. Cellular bioenergetic profiles were determined using XF96 Seahorse Extracellular Flux Analyzer 1 h following radiation exposure.
Cellular oxygen consumption rates (OCR) were measured at 37° C. using an XF96 extracellular analyzer (Seahorse Bioscience) as previously described (Ferrick D A, Neilson A, and Beeson C. Advances in measuring cellular bioenergetics using extracellular flux. Drug Discov Today 2008; 13: 268-274). Briefly, 10,000 H9C2 cells per well were plated. The cells were treated with 5 μM DT3 or 5 μM DG-3 or vehicle control (DMSO) overnight. Cells were then exposed to 0, 50 or 100 μM H2O2 for 4 h or 6 Gy ionizing radiation (IR). The media in the wells were changed to unbuffered Dulbecco's Modified Eagle Medium (DMEM) supplemented with 4 mM […] and incubated in a non-CO2 incubator for 1 h at 37° C. Three baseline measurements were acquired before injection of mitochondrial inhibitors or uncouplers. Readings were taken after sequential addition of oligomycin (10 μM), FCCP (10 μM), and rotenone/antimycin A (10 μM). OCR was calculated by the Seahorse XF96 software and represents an average of 12-16 measurements.

[4] = tested on: H9C2 rat heart cardiomyocyte cells; assay: Total antioxidant capacity (copper reducing equivalents) of cardiomyocytes; type: cell-based; conditions: 5 μM treatment
Source text: as §1

[5] = 5 μM treatment followed by H2O2 treatment

Question: `CC(C)=CCC/C(C)=C/CC/C(C)=C/CC[C@]1(C)CCc2cc(O)cc(C)c2O1` [DT3, δ-tocotrienol] was tested. Which “Morphological changes (cell damage) after H2O2” value ([1]; 5 μM overnight pre-treatment, then 100 μM H2O2 for 4 h) did it give?
Answer: damage is limited

Question: And the “Morphological changes (cell monolayer) after H2O2” value ([1]; 5 μM overnight pre-treatment, then 200 μM H2O2 for 4 h)?
Answer: still maintain a monolayer with only a few rounded cells

Question: What about the “Cell viability after oxidative insult via H2O2” value [1, 5] of the same compound?
Answer: preserved

Question: And the IC50 [2]?
Answer: 2.58 µM

Question: And the “Effect of H2O2 treatment on OCR after pre-treatment” value ([3]; 50 μM H2O2 for 4 h (FIG. 7))?
Answer: eliminated

Question: And the “Effect of H2O2 treatment on OCR after pre-treatment” value ([3]; 100 μM H2O2 for 4 h (FIG. 8))?
Answer: significantly reduced

Question: What about the “Oxygen consumption rate (OCR) compared to controls” value ([3]; 5 μM overnight, no H2O2 (FIG. 5)) of the same compound?
Answer: modestly improved

Question: What about the “Mitochondrial respiration after oxidative insult via H2O2” value [3, 5] of the same compound?
Answer: preserved

Question: And the “Total antioxidant capacity (copper reducing equivalents)” value [4]?
Answer: did not change
